# From patent publication US10906873B2, “Substituted cyclic amides as herbicides” (FMC Corporation, priority 2015, dated 2021)
# Legend:
# Type in all cases: in vivo
# [1] = test system: pigweed (Amaranthus retroflexus); test: Test A preemergence, pigweed; details: 0 to 100 scale
# In short: (§1)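 Scores run from 0, no effect, to 100, complete control, assigned visually after roughly 10 d in the greenhouse. Preemergence treatment is a directed spray onto sown loam–sand soil; postemergence treatment targets plants 2 to 10 cm tall.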
# [2] = test system: ragweed (common ragweed, Ambrosia elatior); test: Test A postemergence, ragweed; details: 0 to 100 scale
# In short: as §1
# kochia (Kochia scoparia) [3] = test: Test A postemergence, kochia; details: 0 to 100 scale
# In short: as §1
# [4] = test system: wheat (Triticum aestivum); test: Test A postemergence, wheat; details: 0 to 100 scale
# In short: as §1
# corn (Zea mays) = test: Test A postemergence, corn; details: 0 to 100 scale
# In short: as §1
# [5] = test system: sedge, umbrella (small-flower umbrella sedge, Cyperus difformis); test: Test B flooded paddy test, sedge, umbrella; details: Flood, 250 g ai/ha; scale of 0 to 100 where 0 is no effect and 100 is complete control; 13 to 15 d
# In short: (§2)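 Plants at the 2-leaf stage were flooded to 3 cm above soil, and test compounds were applied directly into the paddy water, which was held at that depth throughout. After 13 to 15 d in a greenhouse, injury was rated visually against untreated controls on a 0–100 scale (0 no effect, 100 complete control).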
# kochia (Kochia scoparia) [6] = test: Test A preemergence, kochia; details: 0 to 100 scale
# In short: as §1
# [7] = test system: barnyardgrass (Echinochloa crus-galli); test: Test A postemergence, barnyardgrass; details: 0 to 100 scale
# In short: as §1
# [8] = test system: galium (catchweed bedstraw, Galium aparine); test: Test A postemergence, galium; details: 0 to 100 scale
# In short: as §1
# [9] = test system: barnyardgrass (Echinochloa crus-galli); test: Test A preemergence, barnyardgrass; details: 0 to 100 scale
# In short: as §1
# [10] = test system: barnyardgrass (Echinochloa crus-galli); test: Test B flooded paddy test, barnyardgrass; details: Flood, 250 g ai/ha; scale of 0 to 100 where 0 is no effect and 100 is complete control; 13 to 15 d
# In short: as §2
# [11] = test system: ryegrass, It. (Italian ryegrass, Lolium multiflorum); test: Test A postemergence, ryegrass, It.; details: 0 to 100 scale
# In short: as §1
# [12] = test system: blackgrass (Alopecurus myosuroides); test: Test A postemergence, blackgrass; details: 0 to 100 scale
# In short: as §1
# [13] = test system: ragweed (common ragweed, Ambrosia elatior); test: Test A preemergence, ragweed; details: 0 to 100 scale
# In short: as §1
# [14] = test system: pigweed (Amaranthus retroflexus); test: Test A postemergence, pigweed; details: 0 to 100 scale
# In short: as §1
# [15] = test system: foxtail, giant (giant foxtail, Setaria faberii); test: Test A preemergence, foxtail, giant; details: 0 to 100 scale
# In short: as §1
# [16] = test system: ryegrass, It. (Italian ryegrass, Lolium multiflorum); test: Test A preemergence, ryegrass, It.; details: 0 to 100 scale
# In short: as §1
# rice (Oryza sativa) = test: Test B flooded paddy test, rice; details: Flood, 250 g ai/ha; scale of 0 to 100 where 0 is no effect and 100 is complete control; 13 to 15 d
# In short: as §2
# [17] = test system: ducksalad (Heteranthera limosa); test: Test B flooded paddy test, ducksalad; details: Flood, 250 g ai/ha; scale of 0 to 100 where 0 is no effect and 100 is complete control; 13 to 15 d
# In short: as §2
# [18] = test system: foxtail, giant (giant foxtail, Setaria faberii); test: Test A postemergence, foxtail, giant; details: 0 to 100 scale
# In short: as §1
SMILES,"Plant response rating, Pigweed ([1]; 125 g ai/ha)","Plant response rating, Pigweed ([1]; 500 g ai/ha)","Plant response rating, Ragweed ([2]; 125 g ai/ha)","Plant response rating, Ragweed ([2]; 500 g ai/ha)","Plant response rating, Kochia (kochia (Kochia scoparia) [3]; 125 g ai/ha)","Plant response rating, Kochia (kochia (Kochia scoparia) [3]; 500 g ai/ha)","Plant response rating, Wheat ([4]; 125 g ai/ha)","Plant response rating, Wheat ([4]; 500 g ai/ha)","Plant response rating, Corn (corn (Zea mays); 125 g ai/ha)","Plant response rating, Corn (corn (Zea mays); 500 g ai/ha)","Plant response rating, Sedge, Umbrella [5]","Plant response rating, Kochia (kochia (Kochia scoparia) [6]; 125 g ai/ha)","Plant response rating, Kochia (kochia (Kochia scoparia) [6]; 500 g ai/ha)","Plant response rating, Barnyardgrass ([7]; 125 g ai/ha)","Plant response rating, Barnyardgrass ([7]; 500 g ai/ha)","Plant response rating, Galium ([8]; 125 g ai/ha)","Plant response rating, Galium ([8]; 500 g ai/ha)","Plant response rating, Barnyardgrass ([9]; 125 g ai/ha)","Plant response rating, Barnyardgrass ([9]; 500 g ai/ha)","Plant response rating, Barnyardgrass [10]",other results
O=C1NCC(/C=C/c2ccccc2F)C1C(=O)Nc1ccccc1F (stereo not drawn) [Compound 34],80,100,0,0,0,0,0,20,0,0,60,0,0,0,60,0,0,20,80,0,"Plant response rating, Ryegrass, It. ([11]; 125 g ai/ha): 0; Plant response rating, Ryegrass, It. ([11]; 500 g ai/ha): 0; Plant response rating, Blackgrass ([12]; 125 g ai/ha): 0; Plant response rating, Blackgrass ([12]; 500 g ai/ha): 0; Plant response rating, Ragweed ([13]; 125 g ai/ha): 0; Plant response rating, Ragweed ([13]; 500 g ai/ha): 0; Plant response rating, Pigweed ([14]; 125 g ai/ha): 0; Plant response rating, Pigweed ([14]; 500 g ai/ha): 0; Plant response rating, Foxtail, Giant ([15]; 125 g ai/ha): 20; Plant response rating, Foxtail, Giant ([15]; 500 g ai/ha): 80; Plant response rating, Ryegrass, It. ([16]; 125 g ai/ha): 0; Plant response rating, Ryegrass, It. ([16]; 500 g ai/ha): 0; Plant response rating, Rice (rice (Oryza sativa)): 15; Plant response rating, Ducksalad [17]: 80; Plant response rating, Foxtail, Giant ([18]; 125 g ai/ha): 20; Plant response rating, Foxtail, Giant ([18]; 500 g ai/ha): 80"
"O=C1NCC(CCc2ccccc2)C1C(=O)Nc1cccc(F)c1F (stereo not drawn) [Compound 35, N-(2,3-difluorophenyl)-2-oxo-4-(2-phenylethyl)-3-pyrrolidinecarboxamide]",0,0,0,0,0,0,0,0,0,0,0,0,50,0,30,0,0,0,30,0,"Plant response rating, Ryegrass, It. ([11]; 125 g ai/ha): 0; Plant response rating, Ryegrass, It. ([11]; 500 g ai/ha): 0; Plant response rating, Blackgrass ([12]; 125 g ai/ha): 0; Plant response rating, Blackgrass ([12]; 500 g ai/ha): 0; Plant response rating, Ragweed ([13]; 125 g ai/ha): 0; Plant response rating, Ragweed ([13]; 500 g ai/ha): 0; Plant response rating, Pigweed ([14]; 125 g ai/ha): 0; Plant response rating, Pigweed ([14]; 500 g ai/ha): 0; Plant response rating, Foxtail, Giant ([15]; 125 g ai/ha): 0; Plant response rating, Foxtail, Giant ([15]; 500 g ai/ha): 60; Plant response rating, Ryegrass, It. ([16]; 125 g ai/ha): 0; Plant response rating, Ryegrass, It. ([16]; 500 g ai/ha): 0; Plant response rating, Rice (rice (Oryza sativa)): 0; Plant response rating, Ducksalad [17]: 70; Plant response rating, Foxtail, Giant ([18]; 125 g ai/ha): 0; Plant response rating, Foxtail, Giant ([18]; 500 g ai/ha): 30"
